According to patent US7169789B2 (Kirin Beer Kabushiki Kaisha, priority 1999, dated 2007):
pIC50: −log10 of the molar value.

Legend:
[1] = tested on: Human glioma cells GL07; assay: Antitumor effect on human glioma cells (GL07) transplanted into nude mice; format: in vivo; conditions: GL07, oral, 20 mg/kg once a day for 9 days; for inhibition in vivo at 20 mg/kg: Mus musculus, Glioma cell, 216 h, read-out: TGIR, % (tumor growth inhibition rate)
Procedure: Antitumor Effect on Human Glioma Cells (GL07)
Human glioma cells GL07 (obtained from Central Laboratories for Experimental Animals) were transplanted into nude mice. When the tumor volume became about 100 mm^3, the mice were grouped. In this case, grouping was carried out so that each group consisted of four mice and the average tumor volume was even among the groups. The test compound was orally or intraperitoneally administered at a dose of 20 mg/kg to the test groups every day once a day for 9 days, while the medium was administered to the control group in the manner as in the test groups. The tumor growth inhibition rate (TGIR) was calculated as follows: The tumor growth inhibition rate (TGIR)=(1−Tx/Cx)×100 wherein Cx represents the volume of tumor at day x for the control group when the tumor volume at the day of the start of the administration was presumed to be 1; and Tx represents the volume of tumor for test compound administration groups.

[2] = target: T1, human KDR (Homo sapiens, UniProt P35968); assay: Inhibitory activity against KDR phosphorylation by ELISA; format: cell-based; conditions: NIH 3T3 cells transfected with human KDR, VEGF 100 ng/ml
T1 construct: expressed in transfected cells; host or cells: NIH 3T3 cells (Sawano A et al., Cell Growth & Differentiation 7, 213-221 (1996))
T1 sequence (P35968 20-1356): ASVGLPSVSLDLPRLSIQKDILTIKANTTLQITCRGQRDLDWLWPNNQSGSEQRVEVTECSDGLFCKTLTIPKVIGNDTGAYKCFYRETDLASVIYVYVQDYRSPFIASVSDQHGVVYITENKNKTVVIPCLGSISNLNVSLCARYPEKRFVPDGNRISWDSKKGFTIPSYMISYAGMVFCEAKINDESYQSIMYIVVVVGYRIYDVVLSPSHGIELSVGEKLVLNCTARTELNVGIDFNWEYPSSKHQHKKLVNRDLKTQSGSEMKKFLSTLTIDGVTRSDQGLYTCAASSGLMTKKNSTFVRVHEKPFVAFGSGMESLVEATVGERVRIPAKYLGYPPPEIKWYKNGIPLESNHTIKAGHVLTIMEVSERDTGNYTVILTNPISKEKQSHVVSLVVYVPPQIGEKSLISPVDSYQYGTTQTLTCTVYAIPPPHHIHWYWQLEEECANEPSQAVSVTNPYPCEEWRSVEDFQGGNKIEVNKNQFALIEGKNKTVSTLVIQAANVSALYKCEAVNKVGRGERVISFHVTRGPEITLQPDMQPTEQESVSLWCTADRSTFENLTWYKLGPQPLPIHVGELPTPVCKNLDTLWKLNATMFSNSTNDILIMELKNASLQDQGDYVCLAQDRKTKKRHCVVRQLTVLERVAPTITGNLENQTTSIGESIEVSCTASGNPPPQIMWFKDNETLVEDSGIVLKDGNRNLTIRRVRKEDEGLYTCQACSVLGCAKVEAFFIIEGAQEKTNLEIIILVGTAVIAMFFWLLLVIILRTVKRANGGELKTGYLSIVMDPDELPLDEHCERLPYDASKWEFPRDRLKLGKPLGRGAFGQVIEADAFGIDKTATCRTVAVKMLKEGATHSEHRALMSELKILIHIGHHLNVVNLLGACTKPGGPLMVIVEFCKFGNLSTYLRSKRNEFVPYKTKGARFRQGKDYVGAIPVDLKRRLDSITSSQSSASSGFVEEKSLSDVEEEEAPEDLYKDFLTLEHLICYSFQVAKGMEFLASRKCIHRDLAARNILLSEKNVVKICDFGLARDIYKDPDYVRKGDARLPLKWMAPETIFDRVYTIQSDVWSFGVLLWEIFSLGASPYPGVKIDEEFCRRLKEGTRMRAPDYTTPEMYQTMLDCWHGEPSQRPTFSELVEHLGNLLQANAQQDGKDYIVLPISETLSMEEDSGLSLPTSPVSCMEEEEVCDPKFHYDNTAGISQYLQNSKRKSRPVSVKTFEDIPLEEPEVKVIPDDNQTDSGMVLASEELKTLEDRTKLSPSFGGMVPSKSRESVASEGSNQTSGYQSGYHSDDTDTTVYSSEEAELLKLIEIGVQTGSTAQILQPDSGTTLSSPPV
Procedure: Measurement of Inhibitory Activity Against KDR Phosphorylation by ELISA
NIH 3T3 cells (Sawano A et al., Cell Growth & Differentation, 7, 213–221 (1996), “Flt-1 but not KDR/Flk-1 tyrosine kinase is a receptor for placenta growth factor, which is related to vascular endothelial growth factor”) prepared by transfection of human KDR were cultured in a DMEM medium containing 10% fetal calf serum (purchased from GIBCO BRL) within a 5% carbon dioxide incubator until 50 to 70% confluent. The harvested cells were inoculated into wells, containing the same medium, in a collagen-type one-coat 96-well flat-bottom plate in an amount of 1.5×10^4 per well, followed by cultivation at 37° C. overnight. The medium was then replaced by a DMEM medium containing 0.1% fetal calf serum. A solution of the test compound in dimethyl sulfoxide was added to each well, and the cultivation was continued at 37° C. for additional one hr. A human recombinant vascular endothelial growth factor (hereinafter abbreviated to “VEGF”) was added to a final concentration of 100 ng/ml, and the stimulation of cells was carried out at 37° C. for 2 min. The medium was removed, the cells were washed with phosphate buffered saline (pH 7.4), and 50 μl of a solubilization buffer (20 mM HEPES (pH 7.4), 150 mM NaCl, 0.2% Triton X-100, 10% glycerol, 5 mM sodium orthovanadylate, 5 mM disodium ethylenediaminetetraacetate, and 2 mM Na4P2O7) was then added thereto. The mixture was shaken at 4° C. for 2 hr to prepare a cell extract.
Separately, phosphate buffered saline (50 μl, pH 7.4) containing […] of anti-phospho-tyrosine antibody (PY20; purchased from Transduction Laboratories) was added to a microplate for ELISA (Maxisorp; purchased from NUNC), followed by standing at 4° C. overnight to form a solid phase on the wells. After washing of the plate, 300 μl of a blocking solution was added, followed by standing at room temperature for 2 hr to perform blocking. After washing, the whole quantity of the cell extract was transferred to the wells, and the plate was then allowed to stand at 4° C. overnight. After washing, an anti-KDR antibody (purchased from Santa Cruz) was allowed to react at room temperature for one hr, and, after washing, a peroxidase-labeled anti-rabbit Ig antibody (purchased from Amersham) was allowed to react at room temperature for one hr. After washing, a chromophoric substrate for peroxidase (purchased from Sumitomo Bakelite Co., Ltd.) was added thereto to initiate a reaction. After a suitable level of color development, a reaction termination solution was added to stop the reaction, and the absorbance at 450 nm was measured with a microplate reader. The KDR phosphorylation activity for each well was determined by presuming the absorbance with the addition of VEGF and without the addition of the medicament to be 100% KDR phosphorylation activity and the absorbance without the medicament and VEGF to be 0% KDR phosphorylation activity. The concentration of the test compound was varied on several levels, the inhibition (%) of KDR phosphorylation was determined for each case, and the concentration of the test compound necessary for inhibiting 50% of KDR phosphorylation (IC50) was calculated.

Row | Structure (SMILES) | inhibition in vivo at 20 mg/kg [1] | pIC50 [2] | TGIR, % (tumor growth inhibition rate) [1]
1 | COc1cc2c(Oc3ccc(NC(=O)Nc4ccc(F)cc4F)c(Cl)c3)ccnc2cc1OCCN1CCOCC1 [Example 51, N-(2-chloro-4-{[6-methoxy-7-(2-morpholinoethoxy)-4-quinolyl]oxy}phenyl)-N′-(2,4-difluorophenyl)urea] | 65% |  | 
2 | C#CCNC(=O)Nc1ccc(Oc2ncnc3cc(OC)c(OC)cc23)cc1Cl [Example 81, N-{2-Chloro-4-[(6,7-dimethoxy-4-quinazolinyl)oxy]phenyl}-N′-(2-propynyl)urea] |  | 8.39 | 
3 | CCCNC(=O)Nc1ccc(Oc2ncnc3cc(OC)c(OC)cc23)cc1F [Example 88, N-{4-[(6,7-Dimethoxy-4-quinazolinyl)oxy]-2-fluorophenyl}-N′-propylurea] |  | 7.21 | 
4 | COc1ccccc1NC(=O)Nc1ccc(Oc2ncnc3cc(OC)c(OC)cc23)c(C)c1 [Example 101, N-{4-[(6,7-Dimethoxy-4-quinazolinyl)oxy]-3-methylphenyl}-N′-(2-methoxyphenyl)urea] | 44% | 8.52 | 
5 | CCCCNC(=O)Nc1ccc(Oc2ncnc3cc(OC)c(OC)cc23)cc1[N+](=O)[O-] [Example 108, N-Butyl-N′-{4-[(6,7-dimethoxy-4-quinazolinyl)oxy]-2-nitrophenyl}urea] |  | 8.30 | 
6 | CCCNC(=O)N(COC)c1ccc(Oc2ncnc3cc(OC)c(OC)cc23)cc1Cl [Example 109, N-{2-Chloro-4-[(6,7-dimethoxy-4-quinazolinyl)oxy]phenyl}-N-methoxymethyl-N′-propylurea] | 71% |  | 
7 | CCCNC(=O)N(C(C)=O)c1ccc(Oc2ncnc3cc(OC)c(OC)cc23)cc1Cl [Example 110, N-Acetyl-N-{2-chloro-4-[(6,7-dimethoxy-4-quinazolinyl)oxy]phenyl}-N′-propylurea] | 26% | < 6.00 | 
8 | CCCN(C)C(=O)Nc1ccc(Oc2ncnc3cc(OC)c(OC)cc23)cc1Cl [Example 111, N′-{2-Chloro-4-[(6,7-dimethoxy-4-quinazolinyl)oxy]phenyl}-N-methyl-N-propyurea] | 78% | < 6.00 | 
9 | CCCN(CC)C(=O)Nc1ccc(Oc2ncnc3cc(OC)c(OC)cc23)cc1Cl [Example 112, N′-{2-Chloro-4-[(6,7-dimethoxy-4-quinazolinyl)oxy]phenyl}-N-ethyl-N-propylurea] | 81% | < 6.00 | 
10 | CCCN(CCC)C(=O)Nc1ccc(Oc2ncnc3cc(OC)c(OC)cc23)cc1Cl [Example 113, N′-{2-Chloro-4-[(6,7-dimethoxy-4-quinazolinyl)oxy]phenyl}-N,N-dipropylurea] | 61% | < 6.00 | 
11 | CCCCN(C)C(=O)Nc1ccc(Oc2ncnc3cc(OC)c(OC)cc23)cc1Cl [Example 114, N-Butyl-N′-{2-chloro-4-[(6,7-dimethoxy-4-quinazolinyl)oxy]phenyl}-N-methylurea] | 60% | < 6.00 | 
12 | COc1cc2ncnc(Oc3ccc(NC(=O)N(C)c4ccc(Cl)cc4)c(Cl)c3)c2cc1OC [Example 115, N′-{2-Chloro-4-[(6,7-dimethoxy-4-quinazolinyl)oxy]phenyl}-N-(4-chlorophenyl)-N-methylurea] | 74% | < 6.00 | 
13 | CCN(CC)C(=O)Nc1ccc(Oc2ncnc3cc(OC)c(OC)cc23)cc1Cl [Example 116, N′-{2-Chloro-4-[(6,7-dimethoxy-4-quinazolinyl)oxy]phenyl}-N,N-diethylurea] | 83% | < 6.00 | 
14 | CNC(=O)Nc1ccc(Oc2ncnc3cc(OC)c(OC)cc23)cc1Cl [Example 117, N-{2-chloro-4-[(6,7-dimethoxy-4-quinazolinyl)oxy]phenyl}-N′-methylurea] |  | 7.62 | 
15 | COc1cc2ncnc(Oc3ccc(NC(=O)N(C)C)c(Cl)c3)c2cc1OC [Example 118, N′-{2-Chloro-4-[(6,7-dimethoxy-4-quinazolinyl)oxy]phenyl}-N,N-dimethylurea] |  | < 6.00 | 
16 | CCCNC(=O)Nc1ccc(Oc2ncnc3cc(OCCCN4CCOCC4)c(OC)cc23)cc1Cl [Example 119, N-(2-chloro-4-{[6-methoxy-7-(3-morpholinopropoxy)-4-quinazolinyl]oxy}phenyl)-N′-propylurea] | 40% | 8.44 | 
17 | CCCNC(=O)Nc1ccc(Oc2ncnc3cc(OCCN4CCOCC4)c(OC)cc23)cc1Cl [Example 120, N-(2-Chloro-4-{[6-methoxy-7-(2-morpholinoethoxy)-4-quinazolinyl]oxy}phenyl)-N′-propylurea] | 30% | 8.41 | 
18 | CCCNC(=O)Nc1ccc(Oc2ncnc3cc(OCCCO)c(OC)cc23)cc1Cl [Example 121, N-(2-Chloro-4-{(7-(3-hydroxypropoxy)-6-methoxy-4-quinazolinyl]oxy}phenyl)-N′-propylurea] | 22% | 7.90 | 
19 | CCCNC(=O)Nc1ccc(Oc2ncnc3cc(OCCO)c(OC)cc23)cc1Cl [Example 122, N-(2-Chloro-4-{[7-(2-hydroxyethoxy)-6-methoxy-4-quinazolinyl]oxy}phenyl)-N′-propylurea] | 21% | 8.24 | 
20 | CCCNC(=O)Nc1ccc(Oc2ncnc3cc(OCCN4CCN(C)CC4)c(OC)cc23)cc1Cl [Example 128, N-[2-Chloro-4-({6-methoxy-7-[2-(4-methylpiperazino)ethoxy]-4-quinazolinyl}oxy)phenyl]-N′-propylurea] | 21% |  | 
21 | CCCNC(=O)Nc1ccc(Oc2ncnc3cc(OCCN(C)CCO)c(OC)cc23)cc1Cl [Example 129, N-{2-Chloro-4-[(7-{2-[(2-hydroxyethyl)-(methyl)amino]ethoxy}-6-methoxy-4-quinazolinyl)oxy]-phenyl}-N′-propylurea] | 25% |  | 
22 | CCCNC(=O)Nc1ccc(Oc2ncnc3cc(OCCCN4CCN(C)CC4)c(OC)cc23)cc1Cl [Example 130, N-[2-Chloro-4-({6-methoxy-7-[3-(4-methylpiperazino)propoxy]-4-quinazolinyl}oxy)phenyl]-N′-propylurea] | 32% |  | 
23 | CCCNC(=O)Nc1ccc(Oc2ncnc3cc(OCCCN4CCOCC4)c(OC)cc23)cc1OC [Example 171, N-(2-Methoxy-4-{[6-methoxy-7-(3-morpholinopropoxy)-4-quinazolinyl]oxy}phenyl)-N′-propylurea] | 13% |  | 
24 | COc1cc(Oc2ncnc3cc(OCCCN4CCOCC4)c(OC)cc23)ccc1NC(=O)Nc1ccc(F)cc1F [Example 172, N-(2,4-Difluorophenyl)-N′-(2-methoxy-4-{[6-methoxy-7-(3-morpholinopropoxy)-4-quinazolinyl]oxy}-phenyl)urea] | 42% |  | 
25 | CCCNC(=O)Nc1ccc(Oc2ccnc3cc(OCCCN4CCOCC4)c(OC)cc23)cc1OC [Example 173, N-(2-Methoxy-4-{[6-methoxy-7-(3-morpholinopropoxy)-4-quinolyl]oxy}phenyl)-N′-propylurea] | 21% |  | 
26 | CCCNC(=O)Nc1ccc(Oc2ccnc3cc(OCc4ccncc4)c(OC)cc23)cc1OC [Example 174, N-(2-Methoxy-4-{[6-methoxy-7-(4-pyridylmethoxy)-4-guinolyl]oxy}phenyl)-N′-propylurea] |  |  | 19%
